Patent US9085593B2, “Therapeutic agent for arthrosis” (SANSHO CO., LTD., priority 2011, dated 2015)
“And” between values parts separate entries of the source, which are not always exact repeats. Equal entries are not always repeated.

System: osteoarthritis in rabbit knee
Test: Swelling assessment (articular swelling of both hind limbs), rabbit knee osteoarthritis model
Type: in vivo, rabbits (Kbs:NZW)
Experimental: Twelve 11- to 12-week-old male rabbits (Kbs:NZW) were used. Rabbits were reared in separate cages (one rabbit per cage) at 14.4° C. to 24.9° C. under light (12 hours from 7:00 am to 7:00 pm) with continuous ventilation. Rabbits were allowed to eat 150 g of feed (CR-3, CLEA Japan, Inc.) per day and to drink tap water.
(9Z)-9-Octadecenoic acid-(2-hydroxy-2-oxide-1,2-oxaphospholan-4-yl)methyl ester sodium salt (C18:1-cPA; hereafter, referred to as “ScPA”) was used.
Hair in the vicinity of the knee joint of the right hind limb of a rabbit was shaved using electrical clippers under deep anesthesia, and the shaved area was disinfected with Isodine. The outer coat on the medial aspect of the right hind limb was incised with a surgical knife, the boundary between the medial aspect and the articular capsule of the patellofemoral ligament was further incised, and the medial patellofemoral ligament was then dissected. Thereafter, the articular capsule was spread wide open to expose the medial meniscus, which was then completely removed. Following the removal of the meniscus, tissue and epidermis in the vicinity of the articular capsule were sutured. At the time of suturing, the site of operation was washed with physiological saline (titer: 500 mg/20 ml) containing antibiotics (Viccillin, Meiji Seika Pharma Co., Ltd.).
After the model animals were prepared, they were divided into two groups each consisting of 6 individuals while averaging body […] (i.e., the vehicle administered group of Animal Numbers 101 to 106 and the test substance (ScPA) administered group of Animal Numbers 201 to 206).
The test compound and the vehicle were administered in the manner described below. • Route of administration: into the joint cavity • Site of administration: right hind limb (treated limb) • Timing of administration: on days 7, 11, 14, 18, 21, 25, 28, 32, 35, and 39 • Dosage: Test compound: 10 μg/rabbit (volume: 0.2 ml) • Vehicle: 0.2 ml/rabbit • Means of administration: with the use of a 1.0-ml syringe (Terumo Corporation) and a 27 G injection needle (Terumo Corporation) (1-5) Pain Assessment (Weight Distribution Across both Hind Limbs) Frequency of Measurement:
Measurement was carried out 6 weeks after the treatment.
The widest areas at the joints of the right and left hind limbs were measured using digital calipers, and the articular swelling induced by osteoarthritis was determined using the following equation. Swelling (%) of treated limb (right hind limb)=[(right hind limb (mm)−left hind limb (mm))/(left hind limb (mm)[…])]×100 (1-7) Sampling of Biomaterials (day 42) and Post-Sampling Treatment

[1] = joint width, 10 μg/rabbit into joint cavity, Day 42, individual animals 201-206, listed as Test substance, sodium salt

For `CCCCCCCC/C=C\CCCCCCCC(=O)OCC1COP(=O)([O-])C1.[Na+]` (centres unmarked) [ScPA, (9Z)-9-Octadecenoic acid-(2-hydroxy-2-oxide-1,2-oxaphospholan-4-yl)methyl ester sodium salt], the “Swelling, Mean” value (10 μg/rabbit into joint cavity, Day 42, group mean n=6, p=0.0164 vs vehicle) was 0.6%, the “Swelling (%) of treated limb (right hind limb)” value (10 μg/rabbit into joint cavity, Day 42, individual animals 201-206, listed as Test substance, sodium salt) was −1.75% and 1.58% and 3.72% and −5.46% and 6.59% and −1.97% and the “articular swelling compared with the vehicle administered group” value (day 42, p=0.0164) was “inhibited more significantly”. The “Left hind limb (mm)” value [1] was 24.60 mm and 23.38 mm and 21.50 mm and 22.88 mm and 23.21 mm and 21.79 mm and the “Right hind limb (mm)” value [1] was 24.17 mm and 23.75 mm and 22.30 mm and 21.63 mm and 24.74 mm and 21.36 mm.
